Where a name gives a salt, the structure may show the parent alone. Read-outs that look alike come from different tables or passages of the source.
Columns and labels:
[1] = test system: VEEV; settings: read-out: VEEV EC50 (alphavirus replication); cited from earlier work
[2] = test system: VEEV nsP2 protease; settings: cited from earlier work
[3] = GSH capture assay; format: physicochemical; settings: GSH (100×), phosphate buffer pH 7.4, 30 °C
[4] = Storage stability as solid or 10 mM DMSO stock solution
[5] = Pharmacokinetics in mice, 10 mg/kg i.v.; format: in vivo, Male CD1 mice; settings: for half-life: plasma, 10 mg/kg
Description: Although vinyl sulfones have been used as covalent warheads for inhibition of a wide range of cysteine proteases, there are relatively few reports of their use in vivo [14].
Blood samples were centrifuged at 4000× g for 5 min at 4 °C to obtain plasma. The plasma samples from each time point were pooled and then analyzed by LCMS/MS. The PK parameters were estimated by a non-compartmental model using WinNonlin 8.3.

Work on `CS(=O)(=O)CC1CNC(=O)c2cc(NS(=O)(=O)c3ccccc3)nn21` (stereo not shown) (as salt: TFA) [Compound 8, N-(7-((methylsulfonyl)methyl)-4-oxo-4,5,6,7-tetrahydropyrazolo[1,5-a]pyrazin-2-yl)benzenesulfonamide] yielded a melting point of 222 °C.
In the case of `C[C@@H]1CC(C)(C)Nc2c(C(=O)NC/C=C/S(C)(=O)=O)cccc21` [Compound #11], the EC50 [1] is listed as 1400 nM and the “VEEV nsP2 protease activity inhibition” value [2] is listed as “micromolar inhibitor”.
With `CS(=O)(=O)CC1CNC(=O)c2cc(NS(=O)(=O)c3ccccc3)nn21` (stereo not shown) [Compound 8, N-(7-((methylsulfonyl)methyl)-4-oxo-4,5,6,7-tetrahydropyrazolo[1,5-a]pyrazin-2-yl)benzenesulfonamide] the “GSH-Adduct Formation (%)” value ([3]; 8 h) was 3% and the “GSH-Adduct Formation (%)” value ([3]; 24 h) was 6%.
With `CCOc1ccccc1-c1cc2n(n1)C(CS(C)(=O)=O)CNC2=O` (stereo not shown) [Compound 2, 2-(2-ethoxyphenyl)-7-((methylsulfonyl)methyl)-6,7-dihydropyrazolo[1,5-a]pyrazin-4(5H)-one] the Stability upon storage [4] was “stable”, the “GSH-Adduct Formation (%)” value ([3]; 8 h) was 0% and the “Plasma exposure relative to 1” value [5] was 4 fold. It also gave an AUC(0-t) ([5]; male, CD1, mouse, iv, pooled plasma) of 3800 ng·h/mL, a half-life ([5]; male, CD1, mouse, iv, pooled plasma, read-out: T1/2 (converted)) of 30.6 min and a half-life ([5]; male, CD1, mouse, iv, read-out: i.v. half-life) of about 30 min. The Clobs ([5]; pooled plasma) was 44 mL/min/kg and the Vssobs ([5]; pooled plasma) was 0.32 L/kg.
